Assay results taken from patent US8569308B2, “Substituted heteroarylamine carboxamide analogs as mGluR5 negative allosteric modulators and methods of making and using the same” (Vanderbilt University, priority 2009, dated 2013).

target: rat mGluR5 (Rattus norvegicus, UniProt P31424); experiment: cell-based
Sequence (P31424 21-1203): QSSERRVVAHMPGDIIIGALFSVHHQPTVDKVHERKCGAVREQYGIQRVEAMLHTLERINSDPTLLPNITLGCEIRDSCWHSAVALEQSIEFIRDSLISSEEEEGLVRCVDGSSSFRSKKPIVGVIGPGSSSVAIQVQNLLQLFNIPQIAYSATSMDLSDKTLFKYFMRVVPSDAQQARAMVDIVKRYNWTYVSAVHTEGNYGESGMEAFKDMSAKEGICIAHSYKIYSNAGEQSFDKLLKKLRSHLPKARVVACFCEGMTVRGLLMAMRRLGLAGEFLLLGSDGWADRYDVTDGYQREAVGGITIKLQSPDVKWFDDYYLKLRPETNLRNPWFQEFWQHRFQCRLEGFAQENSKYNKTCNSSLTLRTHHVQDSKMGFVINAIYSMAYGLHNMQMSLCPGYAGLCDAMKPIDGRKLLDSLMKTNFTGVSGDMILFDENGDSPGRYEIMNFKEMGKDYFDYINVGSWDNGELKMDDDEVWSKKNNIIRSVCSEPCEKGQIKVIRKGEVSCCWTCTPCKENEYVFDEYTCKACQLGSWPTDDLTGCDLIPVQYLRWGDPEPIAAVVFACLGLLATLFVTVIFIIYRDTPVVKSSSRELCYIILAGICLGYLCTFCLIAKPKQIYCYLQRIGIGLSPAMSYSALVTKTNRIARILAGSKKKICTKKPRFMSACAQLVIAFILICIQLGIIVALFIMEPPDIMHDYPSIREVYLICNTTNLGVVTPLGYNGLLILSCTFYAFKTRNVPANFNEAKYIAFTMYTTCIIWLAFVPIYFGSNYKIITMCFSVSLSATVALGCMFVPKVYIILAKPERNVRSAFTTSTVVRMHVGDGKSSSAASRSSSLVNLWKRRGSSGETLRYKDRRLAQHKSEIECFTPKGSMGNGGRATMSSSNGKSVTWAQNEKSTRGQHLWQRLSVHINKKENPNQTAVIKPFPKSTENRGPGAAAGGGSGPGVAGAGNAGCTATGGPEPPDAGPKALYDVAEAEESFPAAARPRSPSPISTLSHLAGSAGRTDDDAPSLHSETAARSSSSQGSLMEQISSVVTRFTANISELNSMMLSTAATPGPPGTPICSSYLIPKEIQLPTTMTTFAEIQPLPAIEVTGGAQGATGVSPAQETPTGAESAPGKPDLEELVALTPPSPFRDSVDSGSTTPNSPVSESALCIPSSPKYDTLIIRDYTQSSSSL
Experimental: The cells were loaded with a Ca2+-sensitive fluorescent dye (e.g., Fluo-4), and the plates were washed and placed in the FDSS instrument. Test compound was applied to cells 3 seconds after baseline readings were taken. Cells were incubated with the test compounds for 140 seconds and then stimulated with an EC20 concentration of an mGluR5 agonist (e.g., glutamate, 3,5-dihydroxyphenylglycine, or quisqualate); 60-80 seconds later an EC80 concentration of agonist was added and readings taken for an additional 40 seconds. Data were collected at 1 Hz. […] Concentration response curves were generated using a four parameter logistical equation.
The above described assay was operated in two modes. In the first mode (utilizing a triple add protocol), a range of concentrations of the present compounds were added to cells, followed by two single fixed concentrations of agonist (EC20 followed by EC80). If a compound acted as a potentiator, an EC50 value for potentiation of the EC20 response and a maximum extent of potentiation by the compound at this concentration of agonist was determined by non-linear curve fitting. If a compound acted as an antagonist, an IC50 value for antagonism of the EC80 response and a maximum extent of antagonism by the compound at this concentration of agonist was determined by non-linear curve fitting. In the second mode (utilizing a double add protocol), several fixed concentrations of the present compounds were added to various wells on a plate, followed by a range of concentrations of agonist for each concentration of present compound; the EC50 values for the agonist at each concentration of compound were determined by nonlinear curve fitting. A decrease in the EC50 value of the agonist with increasing concentrations of the present compounds (a leftward shift of the agonist concentration-response curve) is an indication of the degree of mGluR5 positive allosteric modulation at a given concentration of the present compound. An increase in the EC50 value of the agonist with increasing concentrations of the present compounds (a rightward shift of the agonist concentration response curve) is an indication of the degree of mGluR5 antagonism at a given concentration of the present compound. The second mode also indicates whether the present compounds also affect the maximum response to mGluR5 to agonists.
The mGluR5 activity was determined using the metabotropic glutamate receptor activity assays in human embryonic kidney cells as described herein, wherein the human embryonic kidney cells were transfected with rat mGluR5. The mGluR5 activity data for some compounds are shown as the average of at least three experiments with the standard error in these cases. If no error is indicated for the mGluR5 activity, the values given represent the results from a single experiment or the average of two experiments.

SMILES	IC50
Cc1cccc(C(=O)Nc2cccc(Oc3cncnc3)n2)n1	> 30000 nM
Cc1cccc(C(=O)Nc2cncc(Oc3cccnc3)n2)c1	166 nM
Cc1ccc(Oc2cncc(NC(=O)c3cccc(Cl)c3)n2)cn1	> 10000 nM
CN(c1cccnc1)c1ccnc(NC(=O)c2cccc(Br)c2)c1	123 nM
O=C(Nc1cncc(Oc2cncnc2)c1)c1cccc(C(F)(F)F)n1	> 30000 nM
CN(c1cncnc1)c1ccnc(NC(=O)c2cccc(C#N)c2)c1	2260 nM
Cc1cccc(C(=O)Nc2cccc(Oc3cncnc3)n2)c1	87 nM
Cc1cccc(C(=O)Nc2cncc(Oc3cccnc3)n2)n1	> 30000 nM
Cc1cccc(C(=O)Nc2cccc(Oc3ccc(C(F)(F)F)nc3)n2)n1	> 30000 nM
O=C(Nc1cncc(Oc2cncnc2)c1)c1cc(Cl)ccc1F	927 nM
CN(c1cncnc1)c1ccnc(NC(=O)c2cccc(Br)c2)c1	162 nM
Cc1cccc(C(=O)Nc2cncc(Oc3ccc(C)nc3)n2)c1	> 10000 nM
O=C(Nc1cncc(Oc2cncnc2)c1)c1cccc(F)n1	> 30000 nM
N#Cc1cccc(C(=O)Nc2cccc(Oc3cccnc3)n2)c1	266 nM

Further lines, results first:

IC50	SMILES
> 10000 nM	N#Cc1csc(C(=O)Nc2cncc(Oc3cncnc3)c2)c1
> 10000 nM	Cc1cccc(C(=O)Nc2cncc(Oc3ccc(C(F)(F)F)nc3)n2)c1
> 30000 nM	N#Cc1cccc(C(=O)Nc2cccc(Oc3ccc(C(F)(F)F)nc3)n2)c1
1790 nM	CCN(c1cncnc1)c1cncc(NC(=O)c2cccc(C#N)c2)c1
460 nM	N#Cc1cccc(C(=O)Nc2cncc(Oc3cccnc3)n2)c1
> 30000 nM	Cc1cccc(C(=O)Nc2cccc(Oc3ccc(C(F)(F)F)nc3)n2)c1
271 nM	N#Cc1cccc(C(=O)Nc2cccc(Oc3cncnc3)n2)c1
> 10000 nM	O=C(Nc1ccnc(Oc2cccnc2)c1)c1cccc(Br)c1
100 ± 12 nM	O=C(Nc1cncc(Oc2cccnc2)n1)c1cccc(Cl)c1
> 10000 nM	N#Cc1cncc(C(=O)Nc2cncc(Oc3cncnc3)c2)c1
1120 nM	O=C(Nc1ccnc(Oc2cccnc2)c1)c1cccc(Cl)c1
> 10000 nM	O=C(Nc1cncc(Oc2cncnc2)c1)c1cccc(F)c1
> 30000 nM	Cc1cccc(C(=O)Nc2cncc(Oc3ccc(C(F)(F)F)nc3)n2)n1
> 10000 nM	O=C(Nc1cncc(Oc2cncnc2)c1)c1cscn1
> 30000 nM	Cc1ccc(Oc2cncc(NC(=O)c3cccc(C)n3)n2)cn1
500 nM	N#Cc1cccc(C(=O)Nc2cncc(Oc3cccnc3)c2)c1
